The record followed here is patent EP0495226B1, “3-Aryl-5-alkylthio-4H-1,2,4-triazoles for treatment of hyperreflexia due to spinal trauma” (priority 1990, dated 1992).

Read-outs that look alike come from different tables or passages of the source.

Assay [1] has as its system strychnine-induced seizures. Description: animal or person. In kind it is in vivo, mice. Particulars: for ED50: Mus musculus, read-out: ED₅₀. How it is done:
Groups of 10 to 20 male mice are administered one or more doses of test compound in an appropriate vehicle or, for comparison, the vehicle alone. At a selected time thereafter, strychnine sulfate, prepared as a solution in distilled water, is administered intraperitoneally at a dose of 2.7 mg/kg. […] Absence of tonic extension for greater than 15 minutes after strychnine administration is considered significant protection.

Assay [2] has as its system heightened spontaneous hind limb movements. Description: Spontaneous hind limb reflex activity in spinally transected rats (hyperreflexia). It counts as in vivo. Conditions: for Integrated Activity, % of Control: ip, 30 minutes after dosing, spinally transected rats; for muscle spasticity: intraperitoneally. As for the experimental part: The effectiveness of the compounds of this invention for treating muscle spasticity resulting from spinal trauma was tested in rats with heightened spontaneous hind limb movements. Four to six weeks before testing, anesthetized rats were spinally transected at the mid-thoracic level, resulting in this form of spontaneous limb activity. 4-Methyl-3-phenyl-5-methylsulfonyl-4H-1,2,4-triazole or clonidine were given intraperitoneally, and after 30-minutes reflex activity was measured in treated animals and untreated controls by a computerized apparatus designed to record, integrate and analyze this activity. […]

Consider `NCC(CC(=O)O)c1ccc(Cl)cc1` (stereo not drawn) [baclofen, reference compound], for which the “antagonism of strychnine-induced seizures” value in assay [1] (dosage range of from 12.5 to 200 mg/kg i.p., mice) is on record as “over 50%”. The protection in assay [1] (no dose (12.5 to 200 mg/kg i.p.) causes 100% protection, mice) is under 100%.
Turning to `CCS(=O)(=O)c1nnc(-c2ccccc2)n1C` [4-methyl-3-phenyl-5-ethylsulfonyl-4H-1,2,4-triazole], the ED50 in assay [1] (ip) turned out to be 19.3 mg/kg; in assay [1] (po), 8.5 mg/kg.
For `Clc1ccc2nsnc2c1NC1=NCCN1` [Tizanidine, reference compound], the maximal protection in assay [1] (at 3.1 mg/kg i.p., doses of up to 50 mg/kg do not cause a greater effect, mice) turned out to be 60%.
For the compound `CCSc1nnc(-c2ccccc2F)n1C` [4-methyl-3-(2-fluorophenyl)-5-ethylthio-4H-1,2,4-triazole], the ED50 in assay [1] (ip) was found to be 18.6 mg/kg; in assay [1] (po) it was 15.1 mg/kg.
For the compound `CN1C(=O)CN=C(c2ccccc2)c2cc(Cl)ccc21` [Diazepam, reference compound], the ED50 in assay [1] (ip) is 1.2 mg/kg.
Consider `Cn1c(-c2ccccc2)nnc1S(C)(=O)=O` [4-Methyl-3-phenyl-5-methylsulfonyl-4H-1,2,4-triazole], for which the ED50 in assay [1] (ip) was 12.8 mg/kg; in assay [1] (po) it was 7.3 mg/kg. Moreover, the “Integrated Activity, % of Control” value in assay [2] (5.0 mg/kg) is 137 ± 10 % of Control; in assay [2] (10.0 mg/kg), 42.9 ± 12.7 % of Control; in assay [2] (20.0 mg/kg), 75.3 ± 19.3 % of Control; in assay [2] (40.0 mg/kg), 51.3 ± 11.9 % of Control. The muscle spasticity entry in assay [2] (rats treated with more than 5 mg/kg) is recorded as “substantial reduction”.
Take `CC[S+]([O-])c1nnc(-c2ccccc2)n1C` (stereo not drawn) [4-methyl-3-phenyl-5-ethylsulfinyl-4H-1,2,4-triazole]: the ED50 in assay [1] (ip) came out at 14.4 mg/kg; in assay [1] (po) it was 8.1 mg/kg.
Consider `Clc1cccc(Cl)c1N=C1NCCN1` [Clonidine, clonidine, reference compound], for which the figures for the “Integrated Activity, % of Control” value in assay [2] (3.1 µg/kg), in assay [2] (12.5 µg/kg) and in assay [2] (50.0 µg/kg) were 130.2 ± 43.9 % of Control, 50.4 ± 9.8 % of Control and 32.5 ± 9.5 % of Control, respectively. The muscle spasticity result in assay [2] (rats treated with more than 3.1 µg/kg) is on record as “substantial reduction”.
